Usually inhibition stands for the drop in the measured response relative to a control, in per cent. For orientation: IC50 means the concentration that inhibits the measured activity by half.

Calls of active or inactive are those of the source. The calls are words filed in the database; no cut-off is given here. Bounds are passed on as bounds.

For series [1], the target named is Cholinesterase (Equus caballus) (UniProt P81908). The experiment in a line: Inhibition of equine serum BuChE at 10 uM after 5 mins by Ellman's method. On the technique in general: In Ellman's method for cholinesterases, released thiocholine reacts with DTNB.
Cholinesterase (Equus caballus), sequence (P81908 whole entry): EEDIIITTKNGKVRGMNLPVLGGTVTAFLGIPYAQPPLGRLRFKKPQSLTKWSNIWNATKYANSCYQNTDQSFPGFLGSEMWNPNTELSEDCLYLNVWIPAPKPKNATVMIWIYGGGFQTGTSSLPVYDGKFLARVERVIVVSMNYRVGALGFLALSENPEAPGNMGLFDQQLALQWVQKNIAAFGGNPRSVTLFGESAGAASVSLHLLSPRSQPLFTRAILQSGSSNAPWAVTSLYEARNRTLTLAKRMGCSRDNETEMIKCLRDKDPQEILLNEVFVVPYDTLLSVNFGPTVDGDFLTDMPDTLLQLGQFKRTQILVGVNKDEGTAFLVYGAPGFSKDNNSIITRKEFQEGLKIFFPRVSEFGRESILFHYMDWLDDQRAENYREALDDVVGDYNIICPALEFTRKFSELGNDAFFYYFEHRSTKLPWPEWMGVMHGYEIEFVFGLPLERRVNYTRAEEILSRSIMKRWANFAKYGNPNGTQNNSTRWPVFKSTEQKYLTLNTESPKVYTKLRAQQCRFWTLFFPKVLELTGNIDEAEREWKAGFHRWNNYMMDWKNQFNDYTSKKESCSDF
Series [2] deals with Acetylcholinesterase (Electrophorus electricus, UniProt O42275).
Acetylcholinesterase (Electrophorus electricus, UniProt O42275), sequence (O42275 whole entry): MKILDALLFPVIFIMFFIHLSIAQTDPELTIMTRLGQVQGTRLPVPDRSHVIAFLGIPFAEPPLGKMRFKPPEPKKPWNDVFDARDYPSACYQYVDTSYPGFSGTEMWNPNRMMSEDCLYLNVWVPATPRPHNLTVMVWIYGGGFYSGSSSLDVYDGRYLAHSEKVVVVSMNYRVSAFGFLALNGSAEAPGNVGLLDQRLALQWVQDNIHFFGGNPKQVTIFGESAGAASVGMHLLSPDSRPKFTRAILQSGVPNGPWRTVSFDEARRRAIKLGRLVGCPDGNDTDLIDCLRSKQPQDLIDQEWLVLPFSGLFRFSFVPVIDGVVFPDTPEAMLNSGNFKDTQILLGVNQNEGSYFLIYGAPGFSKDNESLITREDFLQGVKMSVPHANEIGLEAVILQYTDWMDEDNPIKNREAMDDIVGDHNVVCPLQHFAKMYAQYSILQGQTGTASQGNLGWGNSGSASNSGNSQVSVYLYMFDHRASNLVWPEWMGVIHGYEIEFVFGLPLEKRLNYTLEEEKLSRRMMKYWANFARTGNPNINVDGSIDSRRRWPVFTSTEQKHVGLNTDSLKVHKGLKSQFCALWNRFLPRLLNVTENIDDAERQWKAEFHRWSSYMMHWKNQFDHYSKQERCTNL
Description: Inhibition of Electrophorus electricus AChE after 5 mins by Ellman's method
Series [3] has as its target T1, Acetylcholinesterase (Homo sapiens, UniProt P22303). The experiment in a line: Inhibition of human recombinant AChE at 10 uM after 5 mins by Ellman's method.
The next series has as its target Cholinesterase (Equus caballus, UniProt P81908).
The target of series [4] is T1, Acetylcholinesterase.
Description: Inhibition of human recombinant AChE after 5 mins by Ellman's method
Series [5] addresses Acetylcholinesterase (Electrophorus electricus) (UniProt O42275). The experiment in a line: Inhibition of Electrophorus electricus AChE at 10 uM after 5 mins by Ellman's method.
Series [6] has as its target Amyloid-beta precursor protein (Homo sapiens) (UniProt P05067). Put plainly: Neuroprotective activity in human SH-SY5Y cells assessed as inhibition amyloid beta (1 to 42)-induced cytotoxicity at 10 uM after 48 hrs. Format: functional, cell-based.
Series [7] has the same target. Put plainly: Neuroprotective activity in human SH-SY5Y cells assessed as inhibition amyloid beta (1 to 42)-induced cytotoxicity at 1 uM after 48 hrs. Format: functional, cell-based. More on the design: scale not given: the % may be the effect or the level left.
Series [8] has the same target. The experiment in a line: Neuroprotective activity in human SH-SY5Y cells assessed as inhibition amyloid beta (1 to 42)-induced cytotoxicity at 3 uM after 48 hrs. It counts as functional, cell-based. The arrangement: scale not given: the % may be the effect or the level left.
Series [9] can be described thus: Cytotoxicity against human SH-SY5Y cells assessed as cell viability at 0.1 to 10 uM after 48 hrs by MTS assay. Format: cell-based. A general note: Tetrazolium dyes change colour on reduction, which living cells bring about.
The target in series [10] is Amyloid-beta precursor protein (Homo sapiens) (UniProt P05067). The experiment in a line: Inhibition of human recombinant amyloid beta (1 to 42) self-induced aggregation after 24 hrs by thioflavin-T based fluorometric assay.
Amyloid-beta precursor protein (Homo sapiens), sequence (P05067 whole entry): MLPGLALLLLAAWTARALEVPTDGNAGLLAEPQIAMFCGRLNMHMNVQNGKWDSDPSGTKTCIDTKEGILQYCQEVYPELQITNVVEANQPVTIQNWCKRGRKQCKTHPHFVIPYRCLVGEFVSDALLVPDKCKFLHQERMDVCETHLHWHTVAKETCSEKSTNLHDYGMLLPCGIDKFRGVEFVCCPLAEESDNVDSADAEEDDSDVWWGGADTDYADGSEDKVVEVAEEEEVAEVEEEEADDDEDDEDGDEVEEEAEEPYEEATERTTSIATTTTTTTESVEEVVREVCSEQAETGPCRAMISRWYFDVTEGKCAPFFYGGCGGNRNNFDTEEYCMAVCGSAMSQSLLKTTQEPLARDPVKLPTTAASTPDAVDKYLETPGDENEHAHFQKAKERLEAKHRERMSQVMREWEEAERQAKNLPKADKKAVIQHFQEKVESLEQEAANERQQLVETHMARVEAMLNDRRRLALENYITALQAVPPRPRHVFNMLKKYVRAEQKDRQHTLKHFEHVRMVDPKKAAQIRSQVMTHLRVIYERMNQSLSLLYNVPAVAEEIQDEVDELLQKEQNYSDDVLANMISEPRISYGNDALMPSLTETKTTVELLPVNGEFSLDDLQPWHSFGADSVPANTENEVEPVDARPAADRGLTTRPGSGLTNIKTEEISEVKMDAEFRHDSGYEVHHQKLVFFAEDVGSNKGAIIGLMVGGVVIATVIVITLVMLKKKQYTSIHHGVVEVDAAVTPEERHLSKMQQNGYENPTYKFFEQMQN
Series [11] has as its target Acetylcholinesterase (Electrophorus electricus) (UniProt O42275). The experiment in a line: Non-competitive inhibition of Electrophorus electricus AChE after 5 mins by Lineweaver-Burk plot analysis.

Acetylcholinesterase (Electrophorus electricus), sequence (O42275 24-633 limits assumed): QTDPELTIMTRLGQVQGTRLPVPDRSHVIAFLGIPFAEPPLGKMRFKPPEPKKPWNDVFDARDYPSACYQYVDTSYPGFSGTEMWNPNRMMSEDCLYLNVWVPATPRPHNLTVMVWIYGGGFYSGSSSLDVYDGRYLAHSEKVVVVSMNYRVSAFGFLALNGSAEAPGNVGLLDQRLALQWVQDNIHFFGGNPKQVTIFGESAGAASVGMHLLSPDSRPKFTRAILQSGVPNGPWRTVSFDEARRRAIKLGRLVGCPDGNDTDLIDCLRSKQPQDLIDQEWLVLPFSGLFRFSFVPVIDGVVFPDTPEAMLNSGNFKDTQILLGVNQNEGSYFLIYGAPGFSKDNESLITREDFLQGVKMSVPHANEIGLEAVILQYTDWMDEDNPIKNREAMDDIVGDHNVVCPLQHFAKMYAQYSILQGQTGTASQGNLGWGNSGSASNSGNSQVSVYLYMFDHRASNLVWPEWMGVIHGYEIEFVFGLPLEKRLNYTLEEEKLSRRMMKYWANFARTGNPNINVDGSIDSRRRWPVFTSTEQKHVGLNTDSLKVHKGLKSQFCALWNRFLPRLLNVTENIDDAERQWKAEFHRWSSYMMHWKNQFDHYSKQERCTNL
Cholinesterase, sequence (P81908 whole entry): as the sequence (P81908 whole entry) above
T1 sequence (P22303 whole entry): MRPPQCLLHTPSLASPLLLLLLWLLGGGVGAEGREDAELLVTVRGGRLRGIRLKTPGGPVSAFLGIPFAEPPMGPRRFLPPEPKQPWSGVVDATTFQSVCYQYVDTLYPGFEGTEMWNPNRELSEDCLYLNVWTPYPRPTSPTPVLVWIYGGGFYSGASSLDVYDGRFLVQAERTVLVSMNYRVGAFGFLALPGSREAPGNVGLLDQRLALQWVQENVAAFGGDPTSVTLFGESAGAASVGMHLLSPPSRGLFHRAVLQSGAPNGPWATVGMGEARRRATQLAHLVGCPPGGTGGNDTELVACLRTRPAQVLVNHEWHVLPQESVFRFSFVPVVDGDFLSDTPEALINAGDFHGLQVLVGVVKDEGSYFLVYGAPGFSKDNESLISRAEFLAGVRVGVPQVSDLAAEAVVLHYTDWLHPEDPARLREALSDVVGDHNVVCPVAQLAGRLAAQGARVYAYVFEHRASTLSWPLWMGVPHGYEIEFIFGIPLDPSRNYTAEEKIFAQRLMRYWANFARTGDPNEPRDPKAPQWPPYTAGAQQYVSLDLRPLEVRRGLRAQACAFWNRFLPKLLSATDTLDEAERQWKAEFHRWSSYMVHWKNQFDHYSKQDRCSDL

Turning to `O=C1c2ccccc2C(=O)N1CCCCNCc1ccc(F)cc1F`, the inhibition (in [1]; at Acetylcholinesterase [3]) was below 50% throughout. Also, the IC50 on Acetylcholinesterase [2] is 8180 nM.

For the molecule `O=C1c2ccccc2C(=O)N1CCCCCCCCNCc1ccc(F)cc1`, the results for the IC50 against Acetylcholinesterase [2] and against Cholinesterase were 2230 nM and 1690 nM, respectively. In addition, the inhibition at Acetylcholinesterase [3] was below 50%.

`O=C1c2ccccc2C(=O)N1CCCCNCc1ccccc1F`: the inhibition (in series [1]; on Acetylcholinesterase [3]) was below 50% throughout. For the same molecule, the IC50 against Acetylcholinesterase [2] was found to be 2030 nM.

As for `O=C1c2ccccc2C(=O)N1CCCCCCNCc1ccccc1`, the IC50 against Acetylcholinesterase [4] was 2100 nM; against Acetylcholinesterase [2], 216 nM. Moreover, in series [1], the inhibition was below 50%.

For the molecule `O=C1c2ccccc2C(=O)N1CCCCCCNCc1cccc(Cl)c1`, the values for the concentration for half-maximal inhibition (IC50) against Acetylcholinesterase [4], against Acetylcholinesterase [2] and on Cholinesterase were 2010 nM, 180 nM and 4600 nM, respectively.

With `O=C1c2ccccc2C(=O)N1CCCCCCCCNCc1cccc(Cl)c1`, the values for the half-inhibitory concentration (IC50) against Acetylcholinesterase [4], against Acetylcholinesterase [2] and at Cholinesterase were 686 nM, 729 nM and 1480 nM, respectively.

Turning to `O=C1c2ccccc2C(=O)N1CCCCCNCc1ccccc1F`, the IC50 came to 168 nM on Acetylcholinesterase [4] and 41 nM against Acetylcholinesterase [2]. In series [1], the inhibition is below 50%.

Regarding `O=C1c2ccccc2C(=O)N1CCCCNCc1ccc(F)cc1`, the inhibition (in [1]; in series [5]; at Acetylcholinesterase [3]) was below 50% throughout.

In the case of `O=C1c2ccccc2C(=O)N1CCCCNCc1ccccc1`, the inhibition (in series [1]; on Acetylcholinesterase [3]) was below 50% in each case. At Acetylcholinesterase [2], this molecule had an IC50 of 5280 nM.

Consider `O=C1c2ccccc2C(=O)N1CCCCCNCc1ccc(F)cc1`, for which the result in [6] was inactive. The half-inhibitory concentration (IC50) against Acetylcholinesterase [4] worked out at 268 nM; against Acetylcholinesterase [2], 219 nM. Besides, the Activity is 84.5% in series [7], 76.2% in series [8] and “Non-toxic” in series [9]. Besides, the inhibition in [1] was below 50%; in [10], “Dose-dependent effect”.

`O=C1c2ccccc2C(=O)N1CCCCCCCNCc1ccccc1`: the results for the IC50 against Acetylcholinesterase [4], against Acetylcholinesterase [2] and against Cholinesterase were 303 nM, 249 nM and 1710 nM, respectively.

On to `O=C1c2ccccc2C(=O)N1CCCCCCNCc1ccc(F)cc1F`, for which the result in series [6] was inactive. In addition, the half-maximal inhibitory concentration (IC50) at Acetylcholinesterase [4] worked out at 1600 nM; against Acetylcholinesterase [2] it was 229 nM; at Cholinesterase, 8090 nM. The values for the Activity in [7], in series [8] and in series [9] were 80.3%, 66.5% and “Non-toxic”, respectively.

For the molecule `O=C1c2ccccc2C(=O)N1CCCCCNCc1cccc(Cl)c1`, in [11], the inhibition entry was “Active”. The IC50 at Acetylcholinesterase [4] was found to be 160 nM; on Acetylcholinesterase [2] it was 34 nM. This molecule came in with an inhibition in [1] below 50%.

As for `O=C1c2ccccc2C(=O)N1CCCCCCNCc1ccc(F)cc1`, the half-inhibitory concentration (IC50) at Acetylcholinesterase [4] amounted to 3170 nM; at Acetylcholinesterase [2], 694 nM; against Cholinesterase, 9200 nM.

As for `O=C1c2ccccc2C(=O)N1CCCCCCCCNCc1ccc(F)cc1F`, the 50% inhibitory concentration (IC50) against Acetylcholinesterase [4] turned out to be 578 nM; on Acetylcholinesterase [2], 601 nM; on Cholinesterase, 1060 nM.

Take `O=C1c2ccccc2C(=O)N1CCCCCCCCNCc1ccccc1`: the inhibition result in [11] is “Active”. The figures for the half-maximal inhibitory concentration (IC50) on Acetylcholinesterase [4], against Acetylcholinesterase [2] and against Cholinesterase were 496 nM, 773 nM and 1230 nM, respectively.

On to `O=C1c2ccccc2C(=O)N1CCCCCCCNCc1ccccc1F`, for which the results for the IC50 at Acetylcholinesterase [4], on Acetylcholinesterase [2] and at Cholinesterase were 329 nM, 119 nM and 2380 nM, respectively.

Take `O=C1c2ccccc2C(=O)N1CCCCCCCNCc1ccc(F)cc1`: the values for the IC50 at Acetylcholinesterase [4], at Acetylcholinesterase [2] and on Cholinesterase were 437 nM, 361 nM and 1580 nM, respectively.

For `O=C1c2ccccc2C(=O)N1CCCCNCc1cccc(Cl)c1`, the inhibition (in series [1]; on Acetylcholinesterase [3]) was below 50% throughout. Further, it took 1970 nM to reach half-maximal inhibition against Acetylcholinesterase [2] (IC50).

Turning to `O=C1c2ccccc2C(=O)N1CCCCCCCNCc1ccc(F)cc1F`, the IC50 against Acetylcholinesterase [4] came out at 381 nM; against Acetylcholinesterase [2], 171 nM; at Cholinesterase it was 1870 nM.

As for `O=C1c2ccccc2C(=O)N1CCCCCCCCNCc1ccccc1F`, the values for the 50% inhibitory concentration (IC50) on Acetylcholinesterase [4], on Acetylcholinesterase [2] and against Cholinesterase were 545 nM, 438 nM and 2090 nM, respectively.

Turning to `O=C1c2ccccc2C(=O)N1CCCCCNCc1ccccc1`, the values for the 50% inhibitory concentration (IC50) at Acetylcholinesterase [4] and at Acetylcholinesterase [2] were 202 nM and 78 nM, respectively. Besides, the inhibition in series [1] was below 50%.

`O=C1c2ccccc2C(=O)N1CCCCCCNCc1ccccc1F`: the IC50 at Acetylcholinesterase [4] stood at 941 nM; against Acetylcholinesterase [2], 113 nM. The molecule further had an inhibition in [1] below 50%.

For `O=C1c2ccccc2C(=O)N1CCCCCCCNCc1cccc(Cl)c1`, the IC50 on Acetylcholinesterase [4] was found to be 651 nM; on Acetylcholinesterase [2] it was 502 nM; on Cholinesterase it was 2630 nM.

As to `O=C1c2ccccc2C(=O)N1CCCCCNCc1ccc(F)cc1F`, the inhibition entry in series [11] was “Active”. Moreover, the half-inhibitory concentration (IC50) against Acetylcholinesterase [4] is 258 nM; against Acetylcholinesterase [2], 100 nM. Further, the inhibition in [1] is below 50%.
